Reference: patent US6825172B2, “3-descladinosyl-6-O-carbamoyl and 6-O-carbonoyl macrolide antibacterial agents” (Janssen Pharmaceutica, NV, priority 2002, dated 2004)
Values after ≈ are worked out from the molar mass of the structure shown. Like-named read-outs stand apart in the source and are kept apart here.

Key:
Assay in all cases: MIC, microdilution broth method (NCCLS)
Type in all cases: cell-based
[1] = system: E. coli OC2605; settings: Escherichia coli
Experimental: (§1) Minimal inhibitory concentration (MIC) has been an indicator of in vitro antibacterial activity widely used in the art. The in vitro antimicrobial activity of the compounds was determined by the microdilution broth method following the test method from the National Committee for Clinical Laboratory Standards (NCCLS). This method is described in the NCCLS Document M7-A4, Vol.17, No.2, “Methods for Dilution Antimicrobial Susceptibility Test for Bacteria that Grow Aerobically—Fourth Edition”, which is incorporated herein by reference.
(§2) In this method two-fold serial dilutions of drug in cation adjusted Mueller-Hinton broth are added to wells in microdilution trays. The test organisms are prepared by adjusting the turbidity of actively growing broth cultures so that the final concentration of test organism after it is added to the wells is approximately 5×10^4 CFU/well.
(§3) Following inoculation of the microdilution trays, the trays are incubated at 35 °C for 16-20 hours and then read. […] The amount of growth in the wells containing the test compound is compared with the amount of growth in the growth-control wells (no test compound) used in each tray. As set forth in Table 1, compounds of the present invention were tested against a variety of Gram positive and Gram negative pathogenic bacteria resulting in a range of activities depending on the organism tested.

[2] = system: E. faecalis ATCC29212; settings: Enterococcus faecalis, read-out: MIC Values, C: E. faecalis ATCC29212
Experimental: as §1, §2, §3

[3] = system: H. influenzae ATCC49247; settings: Haemophilus influenzae, read-out: MIC Values, E: H. influenzae ATCC49247
Experimental: as §1, §2, §3

[4] = system: S. aureus ATCC29213; settings: Staphylococcus aureus, read-out: MIC Values, B: S. aureus ATCC29213
Experimental: as §1, §2, §3

[5] = system: S. pneumoniae ATCC49619; settings: Streptococcus pneumoniae, read-out: MIC Values, D: S. pneumoniae ATCC49619
Experimental: as §1, §2, §3

[6] = Table 1, 6-Carbamoyl-3-Acyl Macrolide Derivatives, read-out: MIC Values, A: E. coli OC2605
[7] = Table 1, 6-Carbamoyl-3-Acyl Macrolide Derivatives
[8] = Table 2, 3,6-Dicarbamoyl Macrolide Derivatives
[9] = Table 3, 6-Carbonate Macrolide Derivatives

Row | Compound | MIC [2, 7] [µg/mL] | MIC [4, 7] [µg/mL] | MIC [5, 7] [µg/mL] | MIC [2, 9] [µg/mL] | MIC [4, 9] [µg/mL] | MIC [5, 9] [µg/mL] | other results
1 | CC[C@H]1OC(=O)[C@H](C)[C@@H](OC(=O)C(C)C)[C@H](C)[C@@H](O[C@@H]2O[C@H](C)C[C@H](N(C)C)[C@H]2O)[C@](C)(OC(=O)NC/C=C/c2ccnc3ccccc23)C[C@@H](C)C(=O)[C@H](C)[C@H]2NC(=O)O[C@@]21C [Compound 33] | 0.25 (≈ 0.284 µM) | 0.5 (≈ 0.567 µM) | 0.03 (≈ 0.034 µM) |  |  |  | MIC [1, 6]: 16 µg/mL (≈ 18.2 µM); MIC [3, 7]: 2 µg/mL (≈ 2.27 µM)
2 | CC[C@H]1OC(=O)[C@H](C)[C@@H](OC(=O)COCc2ccccc2)[C@H](C)[C@@H](O[C@@H]2O[C@H](C)C[C@H](N(C)C)[C@H]2O)[C@](C)(OC(=O)NC/C=C/c2ccc(-c3ncccn3)cc2)C[C@@H](C)C(=O)[C@H](C)[C@H]2NC(=O)O[C@@]21C [Compound 16] | 0.5 (≈ 0.507 µM) | 1 (≈ 1.01 µM) | 0.06 (≈ 0.0608 µM) |  |  |  | MIC [1, 6]: > 16 µg/mL; MIC [3, 7]: 8 µg/mL (≈ 8.11 µM)
3 | CC[C@H]1OC(=O)[C@H](C)[C@@H](OC(=O)Cc2cccnc2)[C@H](C)[C@@H](O[C@@H]2O[C@H](C)C[C@H](N(C)C)[C@H]2O)[C@](C)(OC(=O)NC/C=C/C=C/c2cccnc2)C[C@@H](C)C(=O)[C@H](C)[C@H]2NC(=O)O[C@@]21C [Compound 23] | 0.25 (≈ 0.276 µM) | 1 (≈ 1.1 µM) | 0.03 (≈ 0.0331 µM) |  |  |  | MIC [1, 6]: 16 µg/mL (≈ 17.7 µM); MIC [3, 7]: 4 µg/mL (≈ 4.41 µM)
4 | CC[C@H]1OC(=O)[C@H](C)[C@@H](OC(=O)N(C)C)[C@H](C)[C@@H](O[C@@H]2O[C@H](C)C[C@H](N(C)C)[C@H]2O)[C@](C)(OC(=O)NC/C=C/c2ccc(-c3ncccn3)cc2)C[C@@H](C)C(=O)[C@H](C)[C@H]2NC(=O)O[C@@]21C [Compound 55] |  |  |  |  |  |  | MIC ([1]; Table 2, 3,6-Dicarbamoyl Macrolide Derivatives, read-out: MIC Values, A: E. coil OC2605): 16 µg/mL (≈ 17.6 µM); MIC [2, 8]: 0.25 µg/mL (≈ 0.275 µM); MIC [3, 8]: 4 µg/mL (≈ 4.4 µM); MIC [4, 8]: 0.5 µg/mL (≈ 0.55 µM); MIC [5, 8]: 0.03 µg/mL (≈ 0.033 µM)
5 | CC[C@H]1OC(=O)[C@H](C)[C@@H](OC(=O)N(CC)CC)[C@H](C)[C@@H](O[C@@H]2O[C@H](C)C[C@H](N(C)C)[C@H]2O)[C@](C)(OC(=O)NC/C=C/c2ccc(-n3cncn3)cc2)C[C@@H](C)C(=O)[C@H](C)[C@H]2NC(=O)O[C@@]21C [Compound 72] |  |  |  |  |  |  | MIC [2, 8]: 0.5 µg/mL (≈ 0.54 µM); MIC [4, 8]: 0.5 µg/mL (≈ 0.54 µM); MIC [5, 8]: 0.06 µg/mL (≈ 0.0648 µM)
6 | CC[C@H]1OC(=O)[C@H](C)[C@@H](OC(=O)N(C)OC)[C@H](C)[C@@H](O[C@@H]2O[C@H](C)C[C@H](N(C)C)[C@H]2O)[C@](C)(OC(=O)NC/C=C/c2ccc(-c3ncccn3)cc2)C[C@@H](C)C(=O)[C@H](C)[C@H]2NC(=O)O[C@@]21C [Compound 68] |  |  |  |  |  |  | MIC [2, 8]: 0.5 µg/mL (≈ 0.54 µM); MIC [4, 8]: 1 µg/mL (≈ 1.08 µM); MIC [5, 8]: 0.06 µg/mL (≈ 0.0649 µM)
7 | CC[C@H]1OC(=O)[C@H](C)[C@@H](OC(=O)C(C)C)[C@H](C)[C@@H](O[C@@H]2O[C@H](C)C[C@H](N(C)C)[C@H]2O)[C@](C)(OC(=O)NC/C=C/C=C/c2cnc(C(C)C)nc2)C[C@@H](C)C(=O)[C@H](C)[C@H]2NC(=O)O[C@@]21C [Compound 44] | 2 (≈ 2.22 µM) | 2 (≈ 2.22 µM) | 0.25 (≈ 0.278 µM) |  |  |  | 
8 | CC[C@H]1OC(=O)[C@H](C)[C@@H](OC(=O)Cc2cccnc2)[C@H](C)[C@@H](O[C@@H]2O[C@H](C)C[C@H](N(C)C)[C@H]2O)[C@](C)(OC(=O)OC/C=C/c2cnc3ccccc3c2)C[C@@H](C)C(=O)[C@H](C)[C@H]2NC(=O)O[C@@]21C [Compound 80] |  |  |  | 0.5 (≈ 0.537 µM) | 1 (≈ 1.07 µM) | 0.06 (≈ 0.0644 µM) | 
9 | CC[C@H]1OC(=O)[C@H](C)[C@@H](OC(=O)C(C)C)[C@H](C)[C@@H](O[C@@H]2O[C@H](C)C[C@H](N(C)C)[C@H]2O)[C@](C)(OC(=O)NC/C=C/c2ccc(-c3cnccn3)cc2)C[C@@H](C)C(=O)[C@H](C)[C@H]2NC(=O)O[C@@]21C [Compound 45] | 0.5 (≈ 0.551 µM) | 0.5 (≈ 0.551 µM) | 0.06 (≈ 0.0661 µM) |  |  |  | 
10 | CC[C@H]1OC(=O)[C@H](C)[C@@H](OC(=O)C(C)C)[C@H](C)[C@@H](O[C@@H]2O[C@H](C)C[C@H](N(C)C)[C@H]2O)[C@](C)(OC(=O)OC/C=C/c2cnc3ccccc3c2)C[C@@H](C)C(=O)[C@H](C)[C@H]2NC(=O)O[C@@]21C [Compound 86] |  |  |  | 0.5 (≈ 0.567 µM) | 1 (≈ 1.13 µM) | 0.06 (≈ 0.068 µM) | 
11 | CC[C@H]1OC(=O)[C@H](C)[C@@H](OC(=O)N(CC)CC)[C@H](C)[C@@H](O[C@@H]2O[C@H](C)C[C@H](N(C)C)[C@H]2O)[C@](C)(OC(=O)NC/C=C/c2ccc(-n3cccn3)cc2)C[C@@H](C)C(=O)[C@H](C)[C@H]2NC(=O)O[C@@]21C [Compound 70] |  |  |  |  |  |  | MIC [2, 8]: 0.5 µg/mL (≈ 0.54 µM); MIC [4, 8]: 1 µg/mL (≈ 1.08 µM); MIC [5, 8]: 0.06 µg/mL (≈ 0.0649 µM)
12 | CC[C@H]1OC(=O)[C@H](C)[C@@H](OC(=O)C(C)C)[C@H](C)[C@@H](O[C@@H]2O[C@H](C)C[C@H](N(C)C)[C@H]2OC(C)=O)[C@](C)(OC(=O)NC/C=C/c2ccc(-n3cccn3)cc2)C[C@@H](C)C(=O)[C@H](C)[C@H]2NC(=O)O[C@@]21C [Compound 48] | 0.5 (≈ 0.533 µM) | 1 (≈ 1.07 µM) | 0.06 (≈ 0.064 µM) |  |  |  | 
13 | CC[C@H]1OC(=O)[C@H](C)[C@@H](OC(=O)N(CC)CC)[C@H](C)[C@@H](O[C@@H]2O[C@H](C)C[C@H](N(C)C)[C@H]2O)[C@](C)(OC(=O)NC/C=C/c2ccc(-c3cccnn3)cc2)C[C@@H](C)C(=O)[C@H](C)[C@H]2NC(=O)O[C@@]21C [Compound 71] |  |  |  |  |  |  | MIC [2, 8]: 1 µg/mL (≈ 1.07 µM); MIC [4, 8]: 1 µg/mL (≈ 1.07 µM); MIC [5, 8]: 0.06 µg/mL (≈ 0.064 µM)
14 | CC[C@H]1OC(=O)[C@H](C)[C@@H](OC(=O)Cc2ccccn2)[C@H](C)[C@@H](O[C@@H]2O[C@H](C)C[C@H](N(C)C)[C@H]2O)[C@](C)(OC(=O)NC/C=C/c2ccc(-c3ncccn3)cc2)C[C@@H](C)C(=O)[C@H](C)[C@H]2NC(=O)O[C@@]21C [Compound 2] | 0.25 (≈ 0.261 µM) | 0.5 (≈ 0.522 µM) |  |  |  |  | MIC [1, 6]: 16 µg/mL (≈ 16.7 µM); MIC [3, 7]: 1 µg/mL (≈ 1.04 µM)
15 | CC[C@H]1OC(=O)[C@H](C)[C@@H](OC(=O)Cc2cccnc2)[C@H](C)[C@@H](O[C@@H]2O[C@H](C)C[C@H](N(C)C)[C@H]2O)[C@](C)(OC(=O)OCC#Cc2ccc(-c3ncccn3)cc2)C[C@@H](C)C(=O)[C@H](C)[C@H]2NC(=O)O[C@@]21C [Compound 81] |  |  |  | 0.25 (≈ 0.261 µM) | 0.5 (≈ 0.523 µM) | 0.06 (≈ 0.0628 µM) | 
16 | CC[C@H]1OC(=O)[C@H](C)[C@@H](OC(=O)Cc2cccnc2)[C@H](C)[C@@H](O[C@@H]2O[C@H](C)C[C@H](N(C)C)[C@H]2O)[C@](C)(OC(=O)OC/C=C/c2ccc(-c3cnccn3)cc2)C[C@@H](C)C(=O)[C@H](C)[C@H]2NC(=O)O[C@@]21C [Compound 77] |  |  |  | 0.5 (≈ 0.522 µM) | 1 (≈ 1.04 µM) | 0.06 (≈ 0.0626 µM) | 
17 | CC[C@H]1OC(=O)[C@H](C)[C@@H](OC(=O)N(CC)CC)[C@H](C)[C@@H](O[C@@H]2O[C@H](C)C[C@H](N(C)C)[C@H]2O)[C@](C)(OC(=O)OC/C=C/c2ccc(-c3cnccn3)cc2)C[C@@H](C)C(=O)[C@H](C)[C@H]2NC(=O)O[C@@]21C [Compound 85] |  |  |  | 0.5 (≈ 0.533 µM) | 0.5 (≈ 0.533 µM) | 0.03 (≈ 0.032 µM) | 
18 | CC[C@H]1OC(=O)[C@H](C)[C@@H](OC(=O)N(CC)CC)[C@H](C)[C@@H](O[C@@H]2O[C@H](C)C[C@H](N(C)C)[C@H]2O)[C@](C)(OC(=O)OC/C=C/c2ccc(-c3cccnn3)cc2)C[C@@H](C)C(=O)[C@H](C)[C@H]2NC(=O)O[C@@]21C [Compound 83, Carbonic acid, (3aS,4R,7R,8S,9S,10R,11R,13R,15R,15aR)-8-[[(diethylamino)carbonyl]oxy]-4-ethyltetradecahydro-3a,7,9,11,13,15-hexamethyl-2,6,14-trioxo-10-[[3,4,6-trideoxy-3-(dimethylamino)-β-D-xylo-hexopyranosyl]oxy]-2H-oxacyclotetradecino[4,3-d]oxazol-11-yl(2E)-3-[4-(3-pyridazinyl)phenyl]-2-propenyl ester] |  |  |  | 0.5 (≈ 0.533 µM) | 1 (≈ 1.07 µM) | 0.06 (≈ 0.064 µM) | 
